Legend:
[1] = system: pigweed; test: Test B pre/postemergence pigweed; type: in vivo, Amaranthus retroflexus
In short: (§1)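 Response is a visual 0-to-10 score relative to untreated plants, where 0 means no effect and 10 means complete control, taken twelve to sixteen days after application. Treatments went onto soil at planting and onto foliage of 1- to 4-leaf plants, using a surfactant-containing non-phytotoxic solvent.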

[2] = system: giant foxtail; test: Test B pre/postemergence giant foxtail; type: in vivo, Setaria faberii
Description: (§2) Seeds of bedstraw (Galium aparine), blackgrass (Alopecurus myosuroides), surinam grass (Brachiaria decumbens), cocklebur (Xanthium strumarium), corn (Zea mays), crabgrass (Digitaria sanguinalis), giant foxtail (Setaria faberii), morningglory (Ipomoea hederacea), pigweed (Amaranthus retroflexus), rape (Brassica napus), soybean (Glycine max), sugar beet (Beta vulgaris), velvetleaf (Abutilon theophrasti), wheat (Triticum aestivum), wild oat (Avena fatua) and purple nutsedge (Cyperus rotundus) tubers were planted and treated preemnergence with test chemicals formulated in a non-phytotoxic solvent mixture which included a surfactant.
(§3) At the same time, these crop and weed species were also treated with postemergence applications of test chemicals formulated in the same manner. Plants ranged in height from 2 to 18 cm (1- to 4-leaf stage) for postemergence treatments. Plant species in the flood test consisted of rice (Oryza sativa), smallflower flatsedge (Cyperus difformis), duck salad (Heteranthera limosa) and bamyardgrass (Echinochloa crus-galli) grown to the 2-leaf stage for testing. Treated plants and controls were maintained in a greenhouse for twelve to sixteen days, after which all species were compared to controls and visually evaluated. Plant response ratings, summarized in Table B, are based on a scale of 0 to 10 where 0 is no effect and 10 is complete control. A dash (−) response means no test result.

[3] = system: surinam grass; test: Test B pre/postemergence surinam grass; type: in vivo, Brachiaria decumbens
Description: as §2, §3

[4] = system: morningglory; test: Test B pre/postemergence morningglory; type: in vivo, Ipomoea hederacea
Description: as §2, §3

[5] = system: purple nutsedge; test: Test B pre/postemergence purple nutsedge; type: in vivo, Cyperus rotundus
In short: as §1

[6] = system: blackgrass; test: Test B pre/postemergence blackgrass; type: in vivo, Alopecurus myosuroides
In short: as §1

[7] = system: cocklebur; test: Test B pre/postemergence cocklebur; type: in vivo, Xanthium strumarium
Description: as §2, §3

[8] = system: bedstraw; test: Test B pre/postemergence bedstraw; type: in vivo, Galium aparine
In short: as §1

[9] = system: velvetleaf; test: Test B pre/postemergence velvetleaf; type: in vivo, Abutilon theophrasti; conditions: for Plant response rating, Velvetleaf: Rate 250 g/ha
Description: as §2, §3

[10] = system: rape; test: Test B pre/postemergence rape; type: in vivo, Brassica napus
In short: as §1

[11] = system: crabgrass; test: Test B pre/postemergence crabgrass; type: in vivo, Digitaria sanguinalis
In short: as §1

[12] = system: wheat; test: Test B pre/postemergence wheat; type: in vivo, Triticum aestivum; conditions: for Plant response rating, Wheat: Rate 250 g/ha
In short: as §1

[13] = system: sugar beet; test: Test B pre/postemergence sugar beet; type: in vivo, Beta vulgaris; conditions: for Plant response rating, Sugarbeets: Rate 250 g/ha
Description: as §2, §3

[14] = system: corn; test: Test B pre/postemergence corn; type: in vivo, Zea mays
Description: as §2, §3

[15] = system: wild oat; test: Test B pre/postemergence wild oat; type: in vivo, Avena fatua; conditions: for Plant response rating, Wild oats: Rate 250 g/ha
Description: as §2, §3

[16] = system: soybean; test: Test B pre/postemergence soybean; type: in vivo, Glycine max
Description: as §2, §3

[17] = Postemergence, Rate 125 g/ha, scale of 0 to 10 where 0 is no effect and 10 is complete control
[18] = Preemergence, Rate 31 g/ha, visual rating, scale 0 to 10 (0 no effect, 10 complete control)
[19] = Preemergence, Rate 62 g/ha, scale 0 to 10 (0 no effect, 10 complete control)
[20] = Preemergence, Rate 125 g/ha, scale 0 to 10 (0 no effect, 10 complete control)
[21] = Preemergence, Rate 250 g/ha, scale of 0 to 10 where 0 is no effect and 10 is complete control
[22] = Rate 31 g/ha, Postemergence, scale 0 to 10
[23] = Rate 62 g/ha, Postemergence, scale of 0 to 10 where 0 is no effect and 10 is complete control
[24] = Rate 250 g/ha, Postemergence, scale 0 to 10, 0 is no effect, 10 is complete control
[25] = Postemergence, Rate 250 g/ha, scale 0 to 10, 0 no effect, 10 complete control
[26] = Postemergence, Rate 62 g/ha, scale 0 to 10, 0 is no effect, 10 is complete control
[27] = Rate 125 g/ha, Postemergence, scale 0 to 10, 0 no effect, 10 complete control
[28] = Preemergence, Rate 125 g/ha, 0 is no effect, 10 is complete control
[29] = Preemergence, scale of 0 to 10 where 0 is no effect and 10 is complete control
[30] = Postemergence, scale 0 to 10, 0 is no effect, 10 is complete control

Cc1onc(-c2ccccc2)c1-n1c(=O)on(C(=O)N(c2ccc(F)cc2)C(C)C)c1=O [Compound 100]
0: Redroot pigweed plant response rating [1, 17] | Redroot pigweed plant response rating [1, 18] | Redroot pigweed plant response rating [1, 19] | Plant response rating, Redroot pigweed [1, 20] | Plant response rating, Redroot pigweed [1, 21] | Redroot pigweed plant response rating [1, 22] | Redroot pigweed plant response rating [1, 23] | Plant response rating, Redroot pigweed [1, 24] | Giant foxtail plant response rating [2, 17] | Giant foxtail plant response rating [2, 25] | Giant foxtail plant response rating [2, 18] | Giant foxtail plant response rating [2, 19] | Plant response rating, Giant foxtail [2, 20] | Plant response rating, Giant foxtail [2, 21] | Giant foxtail plant response rating [2, 22] | Giant foxtail plant response rating [2, 23] | B. signalgrass plant response rating [3, 26] | B. signalgrass plant response rating [3, 25] | B. signalgrass plant response rating [3, 18] | B. signalgrass plant response rating [3, 19] | Plant response rating, B. signalgrass [3, 20] | Plant response rating, B. signalgrass [3, 21] | B. signalgrass plant response rating [3, 22] | B. signalgrass plant response rating [3, 27] | Morningglory plant response rating [4, 17] | Morningglory plant response rating [4, 25] | Morningglory plant response rating [4, 18] | Morningglory plant response rating [4, 19] | Plant response rating, Morningglory [4, 20] | Plant response rating, Morningglory [4, 21] | Morningglory plant response rating [4, 22] | Morningglory plant response rating [4, 23] | Nutsedge plant response rating [5, 17] | Nutsedge plant response rating [5, 25] | Nutsedge plant response rating [5, 18] | Nutsedge plant response rating [5, 19] | Plant response rating, Nutsedge [5, 20] | Plant response rating, Nutsedge [5, 21] | Nutsedge plant response rating [5, 22] | Nutsedge plant response rating [5, 23] | Blackgrass plant response rating [6, 17] | Blackgrass plant response rating [6, 25] | Blackgrass plant response rating [6, 18] | Blackgrass plant response rating [6, 19] | Plant response rating, Blackgrass [6, 20] | Plant response rating, Blackgrass [6, 21] | Blackgrass plant response rating [6, 22] | Blackgrass plant response rating [6, 23] | Cocklebur plant response rating [7, 17] | Cocklebur plant response rating [7, 25] | Cocklebur plant response rating [7, 18] | Cocklebur plant response rating [7, 19] | Plant response rating, Cocklebur [7, 20] | Plant response rating, Cocklebur [7, 21] | Cocklebur plant response rating [7, 22] | Cocklebur plant response rating [7, 23] | Bedstraw plant response rating [8, 26] | Bedstraw plant response rating [8, 25] | Bedstraw plant response rating [8, 19] | Plant response rating, Bedstraw [8, 21] | Bedstraw plant response rating [8, 22] | Bedstraw plant response rating [8, 27] | Velvetleaf plant response rating [9, 17] | Velvetleaf plant response rating [9, 18] | Velvetleaf plant response rating [9, 19] | Velvetleaf plant response rating (0 to 10 scale) [9, 28] | Plant response rating, Velvetleaf [9, 29] | Velvetleaf plant response rating [9, 23] | Plant response rating, Velvetleaf [9, 30] | Rape plant response rating [10, 17] | Rape plant response rating [10, 25] | Rape plant response rating [10, 18] | Rape plant response rating [10, 19] | Plant response rating, Rape [10, 20] | Plant response rating, Rape [10, 21] | Rape plant response rating [10, 22] | Rape plant response rating [10, 23] | Crabgrass plant response rating [11, 17] | Crabgrass plant response rating [11, 25] | Crabgrass plant response rating [11, 18] | Crabgrass plant response rating [11, 19] | Plant response rating, Crabgrass [11, 20] | Plant response rating, Crabgrass [11, 21] | Crabgrass plant response rating [11, 22] | Crabgrass plant response rating [11, 23] | Wheat plant response rating [12, 17] | Wheat plant response rating [12, 18] | Wheat plant response rating [12, 19] | Wheat plant response rating (0 to 10 scale) [12, 28] | Plant response rating, Wheat [12, 29] | Wheat plant response rating [12, 23] | Plant response rating, Wheat [12, 30] | Sugarbeets plant response rating [13, 17] | Sugarbeets plant response rating [13, 18] | Sugarbeets plant response rating [13, 19] | Sugarbeets plant response rating (0 to 10 scale) [13, 28] | Plant response rating, Sugarbeets [13, 29] | Sugarbeets plant response rating [13, 23] | Plant response rating, Sugarbeets [13, 30] | Corn plant response rating [14, 17] | Corn plant response rating [14, 25] | Corn plant response rating [14, 18] | Corn plant response rating [14, 19] | Plant response rating, Corn [14, 20] | Plant response rating, Corn [14, 21] | Corn plant response rating [14, 22] | Corn plant response rating [14, 23] | Wild oats plant response rating [15, 17] | Wild oats plant response rating [15, 18] | Wild oats plant response rating [15, 19] | Wild oats plant response rating (0 to 10 scale) [15, 28] | Plant response rating, Wild oats [15, 29] | Wild oats plant response rating [15, 23] | Plant response rating, Wild oats [15, 30] | Soybean plant response rating [16, 17] | Soybean plant response rating [16, 18] | Soybean plant response rating [16, 19] | Plant response rating, Soybean [16, 20] | Plant response rating, Soybean [16, 21] | Soybean plant response rating [16, 23] | Plant response rating, Soybean [16, 24]
